This is an account of results in patent US20240226115A1, “AXL INHIBITOR COMPOUNDS” (ARCUS BIOSCIENCES, INC., priority 2021, published 2024).

The target of one assay is T1, Axl (Homo sapiens, UniProt P30530).
T1 sequence (P30530 26-894): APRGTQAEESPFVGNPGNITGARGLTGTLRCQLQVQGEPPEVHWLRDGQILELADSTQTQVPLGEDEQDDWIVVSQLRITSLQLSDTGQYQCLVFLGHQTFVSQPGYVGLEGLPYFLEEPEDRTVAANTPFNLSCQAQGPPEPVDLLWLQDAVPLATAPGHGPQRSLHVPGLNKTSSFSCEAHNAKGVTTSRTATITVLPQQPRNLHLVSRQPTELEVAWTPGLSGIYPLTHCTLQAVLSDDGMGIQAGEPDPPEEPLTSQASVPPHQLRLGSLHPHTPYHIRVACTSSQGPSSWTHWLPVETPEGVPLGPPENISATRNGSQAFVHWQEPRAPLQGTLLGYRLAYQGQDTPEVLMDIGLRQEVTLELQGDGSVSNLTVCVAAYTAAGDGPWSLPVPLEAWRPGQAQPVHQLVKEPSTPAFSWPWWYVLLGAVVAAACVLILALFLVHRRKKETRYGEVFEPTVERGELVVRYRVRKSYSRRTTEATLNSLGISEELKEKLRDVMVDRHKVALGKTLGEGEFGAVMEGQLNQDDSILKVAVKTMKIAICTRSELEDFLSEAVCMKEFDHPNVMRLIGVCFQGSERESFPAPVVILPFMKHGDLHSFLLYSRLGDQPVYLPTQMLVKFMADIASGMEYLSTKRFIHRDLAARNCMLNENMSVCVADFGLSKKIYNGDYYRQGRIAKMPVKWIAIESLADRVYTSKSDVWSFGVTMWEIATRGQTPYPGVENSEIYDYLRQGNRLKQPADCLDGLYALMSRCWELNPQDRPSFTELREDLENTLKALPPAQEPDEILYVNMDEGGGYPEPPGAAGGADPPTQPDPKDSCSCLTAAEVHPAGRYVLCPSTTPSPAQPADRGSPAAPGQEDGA
Nature of the assay: HTRF KinEASE-TK biochemical potency, AXL. More on the design: purchased Invitrogen. The settings on record: 5 nM AXL, 700 μM ATP. The essentials:
(§1)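 Enzyme preincubated with compound 1 h at RT; final 5 nM AXL or 1 nM TYRO3/MER, 800 nM TK substrate-biotin, 700 μM ATP, HEPES pH 7.4, MgCl2, 1% DMSO, 2 h at RT. HTRF 665/620 ratio read after streptavidin-XL665/cryptate antibody detection; percent activity relative to DMSO and pre-stopped controls.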
In general terms: In TR-FRET formats the signal depends on donor and acceptor labels being close together.

The next assay concerns the target T2, recombinant human TYRO3 (Homo sapiens, UniProt Q06418).
T2 construct: purchased Invitrogen
T2 sequence (Q06418 41-890): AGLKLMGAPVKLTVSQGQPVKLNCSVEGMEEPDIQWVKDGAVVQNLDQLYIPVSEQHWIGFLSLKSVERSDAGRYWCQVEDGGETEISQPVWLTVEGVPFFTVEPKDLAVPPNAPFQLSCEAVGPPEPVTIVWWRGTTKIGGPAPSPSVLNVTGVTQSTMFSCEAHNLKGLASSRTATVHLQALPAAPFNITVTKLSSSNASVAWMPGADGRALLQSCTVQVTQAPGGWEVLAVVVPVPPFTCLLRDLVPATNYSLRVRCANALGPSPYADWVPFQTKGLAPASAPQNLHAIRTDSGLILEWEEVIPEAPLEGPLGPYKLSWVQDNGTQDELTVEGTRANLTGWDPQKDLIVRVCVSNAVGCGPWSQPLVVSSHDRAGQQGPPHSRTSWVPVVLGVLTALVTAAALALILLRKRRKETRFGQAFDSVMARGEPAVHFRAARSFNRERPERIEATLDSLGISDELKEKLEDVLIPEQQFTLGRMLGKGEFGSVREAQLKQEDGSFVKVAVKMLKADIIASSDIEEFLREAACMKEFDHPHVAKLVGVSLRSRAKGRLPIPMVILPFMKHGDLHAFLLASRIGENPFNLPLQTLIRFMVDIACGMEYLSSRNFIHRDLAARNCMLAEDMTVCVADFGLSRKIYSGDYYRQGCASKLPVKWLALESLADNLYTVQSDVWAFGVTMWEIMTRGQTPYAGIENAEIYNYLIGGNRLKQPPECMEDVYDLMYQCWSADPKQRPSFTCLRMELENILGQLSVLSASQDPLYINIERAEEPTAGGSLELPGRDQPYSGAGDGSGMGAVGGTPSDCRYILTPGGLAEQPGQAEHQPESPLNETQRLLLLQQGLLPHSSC
As to the kind of experiment: HTRF KinEASE-TK biochemical potency, TYRO3. The settings on record: 1 nM TYRO3, 700 μM ATP. The essentials:
as §1

pIC50: −log10 of the molar value.

For `O=C1NCCOc2cc(-c3n[nH]c4ncc(-c5ccc6c(c5)CCNC6)cc34)ccc21` [Example 54, 8-(5-(1,2,3,4-Tetrahydroisoquinolin-6-yl)-1H-pyrazolo[3,4-b]pyridin-3-yl)-3,4-dihydrobenzo[f][1,4]oxazepin-5(2H)-one], the pIC50 at Axl and on recombinant human TYRO3 was > 7.00 in each case.
